Source: patent US20260284005A1, “INHIBITING MITOGEN-ACTIVATED PROTEIN (MAP)/ERK KINASE (MEK)1 AND MEK2 AND RELATED METHODS OF TREATMENT” (priority 2023, published 2026)
Where two headings read alike, the source gives them in different places. Blank lines part the entries; values can stand above or below the compound they belong to.

Assays:
[1] = system: ERK-induced transcription in Colon-26 tumors; test: Colon-26 tumor RNA sequencing, ERK transcriptome; format: in vivo, BALB/c mice; details: 100 mg/kg BID PO, day 18, Colon-26
[2] = human, in vivo; cited from earlier work
MIA PaCa-2 cells = test: 3D-TGA; format: cell-based, human; details: Homo sapiens
HT-29 cells = test: 3D-TGA; format: cell-based, human; details: Homo sapiens; HT-29, COL, BRAF V600E; read-out: IC50 in 3D-TGA, CDK-4-6 inhibitor alone
Method: (§1) Cells were seeded in 3D cultures in a black-walled, clear-bottom, non-tissue culture treated, 384-well plate (3000 cells per well) using a 1:1 mixture of BME and a custom media and grown in a humidified incubator with 5% CO2 and 5% O2, which approximates capillary levels for each gas, at 37° C. […] Cells were assessed for cell proliferation using EdU cell proliferation staining. […] Cells were permeabilized with 30 μL of filtered 0.5% Triton X-100 in PBS for 20 minutes at room temperature. Samples were washed twice gently with PBS. Cells were stained utilizing click-iT chemistry by adding 20 μL of staining cocktail containing 2 mM copper sulfate, 8 μM sulfo-Cy5-azide, and 20 mg/ml ascorbic acid in PBS and incubated 30-60 minutes at room temperature in dark. […] Plates were imaged with the Molecular Devices Pico ImageXpress. Images were segmented and percentage of cells with EdU incorporation was quantified to calculate antiproliferative effects of the drugs.
(§2) Five (5)-ethynyl-2′-deoxyuridine (EdU) data was represented as percentage EdU positive cells quantified by high content imaging from the Molecular Devices ImageXpress® Pico.

A549 cells = test: 3D-TGA; format: cell-based, human; details: Homo sapiens; A549, LUN, KRAS G12S; read-out: IC50 in 3D-TGA, CDK-4-6 inhibitor alone
Method: as §1, §2

A-427 cells = test: 3D-TGA; format: cell-based, human; details: Homo sapiens; A-427, LUN, KRAS G12D; read-out: IC50 in 3D-TGA, CDK-4-6 inhibitor alone
Method: as §1, §2

Calu-6 cells = test: 3D-TGA; format: cell-based, human; details: Homo sapiens; Calu-6, LUN, KRAS Q61K; read-out: IC50 in 3D-TGA, CDK-4-6 inhibitor alone
Method: as §1, §2

[3] = in vivo
LS411N cells = test: 3D-TGA; format: cell-based; details: Homo sapiens, LS-411N
NCI-H2172 cells = test: 3D-TGA; format: cell-based; details: Homo sapiens
NCI-H508 cells = test: 3D-TGA; format: cell-based; details: Homo sapiens
NCI-H1650 cells = test: 3D-TGA; format: cell-based; details: Homo sapiens
NCI-H820 cells = test: 3D-TGA; format: cell-based; details: Homo sapiens
NCI-H1975 cells = test: 3D-TGA; format: cell-based; details: Homo sapiens
NCI-H358 cells = test: 3D-TGA; format: cell-based, human; details: Homo sapiens
SK-CO-1 cells = test: 3D-TGA; format: cell-based; details: Homo sapiens
NCI-H1792 cells = test: 3D-TGA; format: cell-based, human; details: Homo sapiens
[4] = MIA PaCa-2, PAN, KRAS G12C, read-out: IC50 in 3D-TGA, CDK-4-6 inhibitor alone

Structure (SMILES): Cn1cnc2c(F)c(Nc3ccc(Br)cc3Cl)c(C(=O)NOCCO)cc21 [selumetinib]
ERK transcriptome, 2 h vs 12 h post-dose [1]: sustained MAPK pathway suppression | half-lives [2]: 6.2 h

Structure (SMILES): O=C(c1ccc(F)c(F)c1Nc1ccc(I)cc1F)N1CC(O)([C@@H]2CCCCN2)C1 [cobimetinib]
half-lives per cycle [3]: ≤ 0.55

Structure (SMILES): Cn1cnc2c(F)c(Nc3ccc(Br)cc3F)c(C(=O)NOCCO)cc21 [binimetinib]
half-lives [2]: 3.5 h

Structure (SMILES): CC(=O)c1c(C)c2cnc(Nc3ccc(N4CCNCC4)cn3)nc2n(C2CCCC2)c1=O [Palbociclib, palbociclib]
IC50 (MIA PaCa-2 cells; [4]): 1 µM | IC50 (HT-29 cells): 1 µM | IC50 (A549 cells): 0.1 to 0.5 µM | IC50 (A-427 cells): 0.5 to 1 µM | IC50 (Calu-6 cells): 1 µM

Other lines, results leading:

IC50 (MIA PaCa-2 cells; [4]): 1 µM | IC50 (HT-29 cells): 1 µM | IC50 (A549 cells): 0.1 to 0.5 µM | IC50 (A-427 cells): 0.1 to 0.5 µM | IC50 (Calu-6 cells): 1 µM
Structure (SMILES): CCN1CCN(Cc2ccc(Nc3ncc(F)c(-c4cc(F)c5nc(C)n(C(C)C)c5c4)n3)nc2)CC1 [Abemaciclib, abemaciclib]

IC50 (LS411N cells; read-out: IC50 in 3D-TGA Afatinib): 1 µM | IC50 (MIA PaCa-2 cells; MIA PaCa-2, read-out: IC50 in 3D-TGA Afatinib): 1 µM | IC50 (NCI-H2172 cells; NCI-H2172, read-out: IC50 in 3D-TGA Afatinib): 1 µM | IC50 (NCI-H508 cells; NCI-H508, read-out: IC50 in 3D-TGA Afatinib): 0.5 to 1 µM | IC50 (NCI-H1650 cells; NCI-H1650, read-out: IC50 in 3D-TGA Afatinib): 1 µM | IC50 (NCI-H820 cells; NCI-H820, read-out: IC50 in 3D-TGA Afatinib): 1 µM | IC50 (NCI-H1975 cells; NCI-H1975, read-out: IC50 in 3D-TGA Afatinib): 1 µM | IC50 (NCI-H358 cells; NCI-H358, read-out: IC50 in 3D-TGA Afatinib): 1 µM | IC50 (SK-CO-1 cells; SK-CO-1, read-out: IC50 in 3D-TGA Afatinib): 1 µM | IC50 (NCI-H1792 cells; NCI-H1792, read-out: IC50 in 3D-TGA Afatinib): 1 µM
Structure (SMILES): CN(C)C/C=C/C(=O)Nc1cc2c(Nc3ccc(F)c(Cl)c3)ncnc2cc1O[C@H]1CCOC1 [Afatinib, afatinib]

IC50 (LS411N cells; read-out: IC50 in 3D-TGA Erlotinib, LS411N, COL, BRAF V600E, agent alone): 1 µM | IC50 (MIA PaCa-2 cells; read-out: IC50 in 3D-TGA Erlotinib, MIA PACA-2, PAN, KRAS G12C, agent alone): 1 µM | IC50 (NCI-H2172 cells; read-out: IC50 in 3D-TGA Erlotinib, NCI-H2172, LUN, EGFR L858R, agent alone): 1 µM | IC50 (NCI-H508 cells; read-out: IC50 in 3D-TGA Erlotinib, NCI-H508, COL, BRAF G596R, agent alone): 1 µM | IC50 (NCI-H1650 cells; read-out: IC50 in 3D-TGA Erlotinib, NCI-H1650, LUN, EGFR E746_A750 del, agent alone): 1 µM | IC50 (NCI-H820 cells; read-out: IC50 in 3D-TGA Erlotinib, NCI-H820, LUN, EGFR T790M, agent alone): 1 µM | IC50 (NCI-H1975 cells; read-out: IC50 in 3D-TGA Erlotinib, NCI-H1975, LUN, EGFR L858R, agent alone): 1 µM | IC50 (NCI-H358 cells; read-out: IC50 in 3D-TGA Erlotinib, NCI-H358, LUN, KRAS G12C, agent alone): 1 µM | IC50 (SK-CO-1 cells; read-out: IC50 in 3D-TGA Erlotinib, SK-CO-1, COL, KRAS G12V, agent alone): 1 µM | IC50 (NCI-H1792 cells; read-out: IC50 in 3D-TGA Erlotinib, NCI-H1792, LUN, KRAS G12C, agent alone): 1 µM
Structure (SMILES): C#Cc1cccc(Nc2ncnc3cc(OCCOC)c(OCCOC)cc23)c1 [Erlotinib, erlotinib]

half-lives per cycle [3]: ≤ 0.25
Structure (SMILES): CC(=O)Nc1cccc(-n2c(=O)n(C3CC3)c(=O)c3c(Nc4ccc(I)cc4F)n(C)c(=O)c(C)c32)c1 [trametinib]
